Key:
NIH-3T3 cell = assay: Stability of tridecapeptide: residual activity by MTT assay after storage at 37° C; type: physicochemical; conditions: 50 mM Tris-HCl pH 8.0, 37° C, days 0-100; peptide 10 μg/ml, EGF 1 μg/ml; MTT on NIH-3T3
Method: To evaluate stability of the synthesized and purified tridecapeptide of Example 1, the tridecapeptide was dissolved in 50 mM Tris-HCl (pH 8.0) to a concentration of 10 μg/ml. The recombinant EGF protein (Sigma-Aldrich) produced in E. coli was prepared as a control in the same buffer to a concentration of 1 μg/ml. The prepared solutions were introduced into glass vials and kept to stand at 37° C. Afterwards, the solutions were taken on days 0, 1, 10, 25, 50, 75 and 100 and subjected to MTT assay (Scudiero, D. A., et al. Cancer Res. 48:4827-4833 (1988)) using NIH-3T3 cell (Korean Cell Line Bank) to determine residual activities of the peptide and EGF (FIG. 2). The results were given as relative values to the activity (100%) of sample taken on day 0.

HaCaT keratinocytes = assay: SRB colorimetric assay, growth of HaCaT keratinocytes; type: cell-based, human; conditions: 72 hr; for cell growth / proliferation of keratinocytes (absorbance at 590 nm): 10 ng/ml or 1,000 ng/ml, serum-free
Method: (§1) To analyze effects of peptides of this invention on proliferation of keratinocytes, SRB (Sulforhodamine B) colorimetric assay was carried out using HaCaT kerationcyte according to Rizzino et al method (Rizzino, et al. Cancer Res., 48:4266 (1988)). HaCaT ketatinocytes (The Korean Cell Line Bank) were cultured in 250 ml-flasks containing EMEM (Eagle's minimal essential media, Gibco, U.S.A.) supplemented with […] (fetal bovine serum). HaCaT ketatinocytes cultured were treated with 0.25% trypsin solution to detach cells from the bottom of culture flasks and centrifuged to collect cell pellets. Cells were resuspended in EMEM not containing FBS, its aliquot (4×10^3) cells was added to each well of 96-well plates and cultured under 7% CO2 for 24 hr at 37° C. After 24-hr culture, the medium was changed with a fresh medium not containing serum and cells were incubated with human EGF or the tri-decapeptide (10 ng/ml or 1,000 ng/ml) dissolved in 10% DMSO for 72 hr under the same conditions as described above. After removing supernatants, cells were washed once using PBS (phosphate buffered saline) and incubated with SRB solution (Sigma-Aldrich). Cells were washed with PBS and observed under a microscope to examine cell viability (FIG. 3). In addition, absorbance at 590 nm was measured to analyze cell proliferation (FIG. 4). Cell adherency to culture dishes was tested using non-treated culture dishes and peptide-pretreated culture dishes. Human keratinocytes were plated on the culture dishes and then incubated for 24 hr, followed by observation under a microscope.

Human keratinocytes = assay: Cell adherency to peptide-pretreated culture dishes; type: cell-based; conditions: 24 hr
Method: as §1, with “Cell adherency to culture dishes was tested using non-treated culture dishes and peptide-pretreated culture dishes. Human keratinocytes were plated on the culture dishes and then incubated for 24 hr, followed by observation under a microscope.” left out

NIH3T3 cells = assay: Cell motility after scratching the culture dish; type: cell-based; conditions: NIH3T3, 1 μg/ml, 1 and 3 day treatment
Method: We analyzed cell motility to further verify cell proliferation potency. NIH3T3 cells were plated on 60 mm-culture dishes and cultured to a suitable fluency. The bottom surface of culture dishes was scratched using pipette and incubated with 1 μg/ml of the present peptides, followed by observing cell motility. In FIG. 6, panels A and B show cell samples non-treated with peptides and panels C and D, cell samples treated with 1 μg/ml peptides. Images of A and C were taken after 1 day-treatment, and those of B and D after 3 day-treatment.

EGF = assay: Autocrine effect: EGF level in culture by ELISA; type: cell-based, human; conditions: HaCat, 1 μg/ml, 6 days
Method: For examining autocrine effects, HaCat cell lines were incubated for 6 days with the tridecapeptides of this invention (1 μg/ml) and then the level of EGF in culture was measured using the ELISA kit (R&D, USA).

hyaluronic acid = assay: Hyaluronic acid level by ELISA; type: cell-based, human; conditions: HaCat, 5 μmole, 72 hr
Method: Furthermore, HaCat cell lines were incubated for 72 hr with 5 μmole of the present tridecapeptides and then the level of hyaluronic acid, a marker indicating the improvement in skin wrinkle, was measured using Hyaluronic acid ELISA kit (Echelon Biosciences Inc, USA) (FIG. 8).

[1] = listed as peptide of this invention

Row | Substance | residual activity relative to day 0 (100%) (NIH-3T3 cell) | cell growth / proliferation of keratinocytes (absorbance at 590 nm) (HaCaT keratinocytes) | cell growth / proliferation of keratinocytes (absorbance at 590 nm) (HaCaT keratinocytes; [1]) | cell viability (microscope) (HaCaT keratinocytes; SRB staining) | number of cells adhered to culture dishes vs non-treated culture dishes (Human keratinocytes; [1]) | number of cells adhered to culture dishes vs non-treated culture dishes (Human keratinocytes; listed as peptides of this invention) | cell motility (NIH3T3 cells) | level of EGF in culture (autocrine effect) (EGF) | level of EGF in culture (autocrine effect) (EGF; listed as present peptide) | level of hyaluronic acid (hyaluronic acid)
1 | NH2-Cys-Met-Tyr-Ile-Glu-Gly-Gly-Gly-Gly-Arg-Gly-Asp-Gly-OH (H-CMYIEGGGGRGDG-OH) [tridecapeptide] | not to be decreased | promotes the growth of human keratinocytes in a dose-dependent manner | significantly high potency | significantly high potency | significantly high potency | about three-fold greater | promote cell motility | significantly high autocrine effects on EGF | considerable increase | significantly increased
2 | recombinant EGF protein: recombinant EGF protein (Sigma-Aldrich) produced in E. coli, used as control [reference compound] | sharply decreased |  |  |  |  |  |  |  |  | 

Reference: patent US8188049B2, “Peptides having activities of epidermal growth factor and its uses” (Caregen Co., Ltd., priority 2006, dated 2012)
